From EPA's ToxValDB 9.5 (doi:10.2903/j.efsa.2018.5405)
Values after ≈ are worked out from the molar mass of the structure shown.

Legend:
[1] = system: Oncorhynchus mykiss; conditions: for LC50: acute, duration: 96 hours, mortality
[2] = system: Tagia sp.; conditions: chronic/long-term; reproduction
[3] = system: Typhlodromus pyri; assay: LR50; higher = less toxic; conditions: acute; mortality
[4] = system: Hypoaspis aculeifer; conditions: chronic/long-term; reproduction
[5] = system: Colinus virginianus; conditions: acute; oral; mortality
[6] = system: Rattus norvegicus
[7] = system: Apis mellifera; conditions: acute, mortality
[8] = system: Neomysis kadiakensis; conditions: chronic/long-term; duration: 28 days; development
[9] = system: Bibionidae; conditions: chronic/long-term; duration: 28 days; development
[10] = system: Anas platyrhynchos; conditions: reproductive

Row | Compound | LC50 [1] [µg/mL] | NOEC [2] [mg/kg] | LR50 [3] [g/ha] | NOEC ([1]; chronic/long-term, duration: 58 days, growth) [µg/L] | NOEC [4] [mg/kg] | LD50 [5] [mg/kg-day] | LD50 ([6]; acute, oral, mortality) [mg/kg-day] | NOAEL ([6]; chronic) [mg/kg-day] | NOAEL ([6]; subchronic, duration: 13 weeks, inhalation, behavior) [mg/kg-day] | LD50 ([7]; dermal) [µg/piece] | LD50 ([7]; oral, unspecified) [µg/piece] | NOEC [8] [µg/L] | NOEC [9] [µg/L] | NOAEL [10] [mg/kg-day]
1 | O=C(O)c1ccc(F)c(Oc2ccccc2)c1 [4-Fluoro-3-phenoxybenzoic acid] | 4.06 (≈ 17.5 µM) | 2.6 | – | – | – | – | – | – | – | – | – | – | – | –
2 | CC1(C)C(C=C(Cl)Cl)[C@@H]1C(=O)O[C@@H](C#N)c1ccc(F)c(Oc2ccccc2)c1 (stereo partly drawn) [beta-Cyfluthrin] | 6.8e-05 (≈ 0.000157 µM) | – | 0.0025 | 0.0042 | 0.485 | > 58.6 | > 8.79 | 1.39 | 0.02 | 0.012 | 0.05 | 0.00041 | 0.0057 | 2.6
